Test results as given in ChEMBL document CHEMBL5113483, “Design and synthesis of NAD(P)H: Quinone oxidoreductase (NQO1)-activated prodrugs of 23-hydroxybetulinic acid with enhanced antitumor properties” (Eur J Med Chem, 2022).

What was measured:
NCI-H596 = test: Antiproliferative activity against NQO1-deficient human NCI-H596 cells assessed as inhibition of cell growth incubated for 72 hrs by MTT assay; type: functional, cell-based; conditions: NCI-H596, 72 h
[1] = Selectivity index, ratio of IC50 for antiproliferative activity against NQO1-deficient human NCI-H596 cells to IC50 for antiproliferative activity against human HT-29 cells overexpressing NQO1; type: functional
[2] = Cytotoxicity against human HFL1 cells assessed as inhibition of cell growth incubated for 72 hrs by MTT assay; type: toxicity, cell-based
HT-29 [3] = test: Antiproliferative activity against human HT-29 cells overexpressing NQO1 assessed as inhibition of cell growth incubated for 72 hrs by MTT assay; type: functional, cell-based; conditions: HT-29, 72 h
[4] = Selectivity index, ratio of IC50 for cytotoxicity against human HFL1 cells to IC50 for antiproliferative activity against human HT-29 cells overexpressing NQO1; type: toxicity, cell-based; conditions: HFL1 cells versus HT-29 cells overexpressing NQO1, read-out: Ratio IC50
A549 = test: Antiproliferative activity against human A549 cells overexpressing NQO1 assessed as inhibition of cell growth incubated for 72 hrs by MTT assay; type: functional, cell-based; conditions: A549, 72 h
HT-29 [5] = test: Antitumor activity against human HT-29 cells overexpressing NQO-1 xenografted in ICR mouse assessed as reduction in tumor weight at 30 mg/kg, ip administered every day for 21 days and measured every 2 days relative to control; type: functional; design: scale not given: the % may be the effect or the level left; conditions: time 21 day
[6] = Toxicity in […] xenografted with human HT-29 cells overexpressing NQO-1 assessed as reduction in body weight at 30 mg/kg, ip administered for 21 days and measured every 2 days; type: organism-based; conditions: in vivo, 504 h, time 21 day
HT-29 [7] = test: Antitumor activity against human HT-29 cells overexpressing NQO-1 xenografted in ICR mouse assessed as reduction in tumor weight at 30 mg/kg, ip administered every 2 days for 21 days and measured every 2 days relative to control; type: functional; design: scale not given: the % may be the effect or the level left
[8] = Selectivity index, ratio of IC50 for antiproliferative activity against human HT-29 cells overexpressing NQO1 in presence of dicoumarol to antiproliferative activity against human HT-29 cells overexpressing NQO1; type: functional
HT-29 [9] = test: Antiproliferative activity against human HT-29 cells overexpressing NQO1 assessed as inhibition of cell growth preincubated with NQO1 inhibitor, dicoumarol for 30 mins followed by compound addition and measured after 72 hrs by MTT assay; type: functional, cell-based

| SMILES | IC50 (NCI-H596) | Ratio IC50 [1] | IC50 at 72 h [2] | IC50 (HT-29 [3]) | selectivity ratio [4] | IC50 (A549) | Activity (HT-29 [5]) | Activity [6] | Activity (HT-29 [7]) | Ratio IC50 [8] | IC50 (HT-29 [9]) |
| --- | --- | --- | --- | --- | --- | --- | --- | --- | --- | --- | --- |
| C=C(C)[C@@H]1CC[C@]2(C(=O)OCCOC(=O)CCC(=O)OCc3cn(C)c4c3C(=O)C(OC)=CC4=O)CC[C@]3(C)[C@H](CC[C@@H]4[C@@]5(C)CCC(=O)[C@@](C)(COC(C)=O)[C@@H]5CC[C@]43C)[C@@H]12 | 5.64 µM | 1.95 | 6.53 µM | 3.35 µM | 1.68 | 3.04 µM |  |  |  |  |  |
| C=C(C)[C@@H]1CC[C@]2(C(=O)N(CCCN(C)C)C(=O)NCC)CC[C@]3(C)[C@H](CC[C@@H]4[C@@]5(C)CC[C@H](O)[C@@](C)(COC(=O)CCC(=O)OCc6cn(C)c7c6C(=O)C(OC)=CC7=O)[C@@H]5CC[C@]43C)[C@@H]12 | 2.78 µM | 1.85 | 4.22 µM | 2.28 µM | 1.23 | 2.32 µM |  |  |  |  |  |
| C=C(C)[C@@H]1CC[C@]2(C(=O)O)CC[C@]3(C)[C@H](CC[C@@H]4[C@@]5(C)CC[C@H](O)[C@@](C)(CO)[C@@H]5CC[C@]43C)[C@@H]12 | 58.1 µM | 1.36 | 75 µM | 54.8 µM | 1.06 | 51.4 µM | 56.81% |  |  |  |  |
| C=C(C)[C@@H]1CC[C@]2(C(=O)OCCOC(=O)CCC(=O)OCc3cn(C)c4c3C(=O)C(OC)=CC4=O)CC[C@]3(C)[C@H](CC[C@@H]4[C@@]5(C)CC[C@H](NC(=O)CCC(=O)N6CCNCC6)[C@@](C)(COC(C)=O)[C@@H]5CC[C@]43C)[C@@H]12 | 6.44 µM | 1.96 | 7.11 µM | 3.63 µM | 1.77 | 5.17 µM |  |  |  |  |  |
| C=C(C)[C@@H]1CC[C@]2(C(=O)OCCOC(=O)CCC(=O)OCc3cn(C)c4c3C(=O)C(OC)=CC4=O)CC[C@]3(C)[C@H](CC[C@@H]4[C@@]5(C)CC[C@H](O)[C@@](C)(COC(=O)C6CCNCC6)[C@@H]5CC[C@]43C)[C@@H]12 | 7.34 µM | 1.59 | 6.83 µM | 4.3 µM | 1.7 | 5.41 µM |  |  |  |  |  |
| O=c1[nH]cc(F)c(=O)[nH]1 [FLUOROURACIL] |  |  |  |  |  |  |  | Toxic | 65.07% |  |  |
| C=C(C)[C@@H]1CC[C@]2(C(=O)N3CCC(N4CCCCC4)CC3)CC[C@]3(C)[C@H](CC[C@@H]4[C@@]5(C)CC[C@H](O)[C@@](C)(COC(=O)CCC(=O)OCc6cn(C)c7c6C(=O)C(OC)=CC7=O)[C@@H]5CC[C@]43C)[C@@H]12 | 6.41 µM | 3.79 | 6.56 µM | 1.73 µM | 3.71 | 2.66 µM |  |  |  | 4.1 | 7.11 µM |
| C=C(C)[C@@H]1CC[C@]2(C(=O)O)CC[C@]3(C)[C@H](CC[C@@H]4[C@@]5(C)CC[C@H](OC(=O)CCCC(=O)OCc6cn(C)c7c6C(=O)C(OC)=CC7=O)[C@@](C)(COC(C)=O)[C@@H]5CC[C@]43C)[C@@H]12 | 4.58 µM | 1.36 | 4.09 µM | 3.58 µM | 1.27 | 4.03 µM |  |  |  |  |  |
| COc1cccc2c1C(=O)c1c(O)c3c(c(O)c1C2=O)C[C@@](O)(C(=O)CO)C[C@@H]3O[C@H]1C[C@H](N)[C@H](O)[C@H](C)O1 [DOXORUBICIN] | 1.52 µM |  |  | 1.13 µM |  | 1.15 µM |  |  |  |  |  |
| C=C(C)[C@@H]1CC[C@]2(C(=O)O)CC[C@]3(C)[C@H](CC[C@@H]4[C@@]5(C)CC[C@H](O)[C@@](C)(COC(=O)CCCC(=O)OCc6cn(C)c7c6C(=O)C(OC)=CC7=O)[C@@H]5CC[C@]43C)[C@@H]12 | 4.71 µM | 1.69 | 3.23 µM | 1.92 µM | 2.46 | 2.52 µM |  |  |  |  |  |
| C=C(C)[C@@H]1CC[C@]2(C(=O)OCCOC(=O)CCC(=O)OCc3cn(C)c4c3C(=O)C(OC)=CC4=O)CC[C@]3(C)[C@H](CC[C@@H]4[C@@]5(C)CC[C@H](OC(=O)CCC(=O)N6CCNCC6)[C@@](C)(COC(C)=O)[C@@H]5CC[C@]43C)[C@@H]12 | 6.39 µM | 2.12 | 6.79 µM | 3.29 µM | 1.99 | 5.45 µM |  |  |  |  |  |
| C=C(C)[C@@H]1CC[C@]2(C(=O)O)CC[C@]3(C)[C@H](CC[C@@H]4[C@@]5(C)CC[C@H](OC(=O)CCC(=O)OCc6cn(C)c7c6C(=O)C(OC)=CC7=O)[C@@](C)(COC(C)=O)[C@@H]5CC[C@]43C)[C@@H]12 | 5.74 µM | 1.97 | 7.25 µM | 3.69 µM | 1.56 | 4.52 µM |  |  |  |  |  |
| C=C(C)[C@@H]1CC[C@]2(C(=O)NCCNC(=O)CCC(=O)OCc3cn(C)c4c3C(=O)C(OC)=CC4=O)CC[C@]3(C)[C@H](CC[C@@H]4[C@@]5(C)CC[C@H](OC(C)=O)[C@@](C)(COC(C)=O)[C@@H]5CC[C@]43C)[C@@H]12 | 7.89 µM | 3.01 | 5.78 µM | 1.92 µM | 4.1 | 3.1 µM |  |  |  | 4.2 | 8.02 µM |
